Test results: patent publication EP3725799B1, “PEPTIDE BINDING TO PL-L1 AND USE THEREOF” (Kyungpook National University Industry-Academic Cooperation …, priority 2017, dated 2025)
One block for each molecule: values may come before it. No end group written: not given here.

Assays:
[1] = tested on: CT26 mouse syngeneic colon tumor model; experiment: Combination therapy of PD-L1 binding peptides with doxorubicin (tumor volume, body weight, survival, immune cell analysis by flow cytometry); assay type: in vivo
Procedure: (§1) 6-8-week-old WT Balb/c mice were purchased. Mice was cared and maintained under the guidelines of the Institutional Animal Care and Use Committee (IACUC) of Kyungpook National University (2014-0001-8.). Tumor was injected onto the lower right flank of the mice. For the in-vivo homing imaging, the tumor was developed for 7 days, after the tumor size reached to 100mm^3, the mice were injected with 100µl of 100mM Flamma-675 NIR fluorescence dye labelled peptides and allow the complete circulation for an hour. After incubation, the mice were anesthetized, and the image was taken using the IVIS imaging system. After completing the imaging, the mice were sacrificed and the tumor along with the other organs were isolated out and subjected to ex-vivo imaging using the IVIS imaging machine. For the antitumor therapy the mice were randomized and grouped after the tumor size was reached to approximately 100mm^3. The peptide was then injected intravenously (5mg/kg) 100µg/mice for 3 weeks, 3 injections/ week. Doxorubicin was injected intraperitoneal (4mg/kg) once a week. Tumor size was measured using a digital caliper, and the tumor volume was calculated using the formula (Volume ¼(L-W-H)/2. (Length: longest dimension, Width: shorter dimension, parallel to the mouse body and Height: perpendicular to the length and width). All mice were checked for the ulceration and at the end of the treatment and the mice were sacrificed for the immune cell analysis.
(§2) Tumors were isolated, minced and incubated with a digestion buffer containing collagenase D (5mg/ml) with the RPMI-1640 medium at 37 °C for 40min. The cell suspension was passed through a cell strainer. The single cell suspension was made ready to use and CD45 antibody was used to stain the tumor infiltrating leukocytes and then analyzed with following antibodies for CD4, CD8 and F4/80. The stained cells were then subjected to flow cytometry (Novocyte).
To enhance the efficacy of immunotherapy with PD-L1-binding peptides, the present inventors combined the peptides with doxorubicin, a chemotherapeutic agent known to induce immunogenic cell death, in CT26 mouse syngeneic colon tumor model. PD-L1 peptides doses were reduced from 12 injections to 9 injections and doxorubicin was given once a week (FIG. 6a). The combination therapy controlled the tumor volume more drastically compared to the previous single treatment (FIG. 6b). In addition, the combination therapy maintained the body weight unchanged compared to the control group, and increased the survival percentage (FIG. 6c and FIG. 6d).

[2] = tested on: CT26 syngeneic mouse model; experiment: Antitumor therapy with PD-L1 binding peptides alone (tumor volume, body weight, survival, immune cell analysis, immunostaining); assay type: in vivo; conditions: peptide intravenously every alternative day for 24 days; compared to the control peptide and PBS group
Procedure: as §1, with “After completing the imaging, the mice were sacrificed and the tumor along with the other organs were isolated out and subjected to ex-vivo imaging using the IVIS imaging machine. For the antitumor therapy the mice were randomized and grouped after the tumor size was reached to approximately 100mm^3. The peptide was then injected intravenously (5mg/kg) 100µg/mice for 3 weeks, 3 injections/ week. Doxorubicin was injected intraperitoneal (4mg/kg) once a week.” left out, “analysis. […]” for “analysis.”
as §2, with “The cell suspension was passed through a cell strainer.” left out, “The stained cells were then subjected to flow cytometry (Novocyte).” left out

[3] = Serum stability of PD-L1 targeting peptides; assay type: in vitro ADME; conditions: incubated with whole serum obtained from mice up to 24h; HPLC peptide peak
Procedure: Mouse blood was collected and allowed to cloth using a microtube for 15-20 min in RT. Serum was then centrifuged at 12000rpm at 4 °C. The upper portion (serum) was collected for testing the peptide stability. The incubated samples were diluted 100-fold and fractionated by C18 reverse phage high performance liquid chromatography (HPLC) with a linear gradient of acetonitrile (0.1% trifluoroacetate in water for equilibration and 0.1% trifluoroacetate in acetonitrile for elution). The peptide peak was collected and vacuum dried.
To measure the KD values of the peptides SPR assays were performed using a streptavidin chip coated with biotin-peptides (FIG. 3a and FIG. 3b). Four different concentrations of PD-L1 binding peptides were for PD-L1Pep-2. […] PD-L1 expression was then knocked down in the MDA-MB231 cell expressing PD-L1. siRNA was tested at different concentration (FIG. 3d). […] To further examine the stability of PD-L1 binding peptides, the peptide was incubated with whole serum obtained from mice up to 24h.

PD-L1 on MDA-MB231 cells = target: T1, PD-L1 on MDA-MB231 cells (human, UniProt Q9NZQ7 19-290); experiment: immunofluorescence and flow cytometry, FITC-peptide on MDA-MB231 cells
T1 construct: whole, on cells; also called MDA-MB 231 cells expressing PD-L1

[4] = target: T2, GFP-tagged PD-L1 transiently overexpressed on Hek-293T cells (human, UniProt Q9NZQ7 19-290); experiment: phage peptide display selection on PD-L1 overexpressing cells
T2 construct: whole, on cells; also called PD-L1-overexpressing cells; not shown: GFP tag

[5] = target: T2, GFP-tagged PD-L1 transiently …; experiment: immunofluorescence, FITC-peptide on transfected HEK 293T cells
[6] = 'from' value of the printed increase, apparently single peptide treatment
[7] = 'to' value of the printed increase, apparently combination with doxorubicin

T1 sequence (Q9NZQ7 19-290): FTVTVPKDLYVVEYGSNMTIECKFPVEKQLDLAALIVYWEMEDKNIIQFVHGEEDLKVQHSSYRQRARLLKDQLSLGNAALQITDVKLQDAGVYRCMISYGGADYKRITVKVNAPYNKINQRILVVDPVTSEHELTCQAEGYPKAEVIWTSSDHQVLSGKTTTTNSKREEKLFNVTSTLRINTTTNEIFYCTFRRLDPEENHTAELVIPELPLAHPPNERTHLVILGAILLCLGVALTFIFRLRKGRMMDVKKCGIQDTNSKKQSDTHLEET
T2 sequence (Q9NZQ7 19-290): as above

Molecule: CLQKTPKQC [PD-L1Pep-1]
CD4+ T cells in tumor tissue [1, 6]: 0.4% | expression percentage of CD8+ T cells in tumor tissue [1, 6]: 1.5% | CD4+ T cells in tumor tissue [1, 7]: 6% | expression percentage of CD8+ T cells in tumor tissue [1, 7]: 6.2% | tumor volume [2]: robust effect | time the peptide peak remained intact in serum [3]: 8 h

time the peptide peak remained intact in serum [3]: 4 h
Molecule: CVRARTR [PD-L1Pep-2, CVRARTR]

binding result (PD-L1 on MDA-MB231 cells): binds | binding result [4]: binds
B1: PD-L1Pep-1 (peptide)
peptide: CLQKTPKQC
modifications: cysteine pairing not given here; also: N-terminal FITC, biotin or Flamma-675 according to assay
notes: also called PBP

binding result (PD-L1 on MDA-MB231 cells): binds | binding result [5]: binds
B2: PD-L1Pep-2 (peptide)
peptide: CVRARTR
modifications: also: N-terminal FITC, biotin or Flamma-675 according to assay
notes: Synthetic 7mer (CVRARTR); also called PBP
